For test [1], the target named is T1, TLR2 (Homo sapiens, UniProt O60603). Briefly: In cyto europium TRF saturation binding assay. Further details: ATCC (SU.86.86 CRL-1837, Capan-I HTB-79); SU.86.86 and Capan-I express TLR2 endogenously. The procedure: TRF binding assays were performed as previously described (see Xu, L., et al. Mol Cancer Ther. 2009 8(8):2356-65).
Europium TRF binding assays were performed as previously described with slight modifications using 3 cell lines that express TLR2: HEK-293/hTLR2, SU.86.86, and Capan-I.[23a, 23d, 29] The Capan-I and SU.86.86 cells were plated in 96-well black plates with white opaque wells (PerkinElmer); while the HEK-293/hTLR2 cells were plated on 96-well poly-D-lysine coated plates (Sigma-Aldrich) to aid in the attachment of these cells to the plate. Cells were grown in the 96-well plates for 2 days reaching approximately 80% confluency. Both types of plates were evaluated for nonspecific binding and background signal.
For saturation binding, increased concentrations of the labeled ligand, compound 11 (Table 8), were used to determine total binding to TLR2. Non-specific binding was determined in the presence of 1 μM Pam2CSK4. On the day of the experiment the medium was aspirated. 50 μL of binding buffer was added to the total binding wells and 50 μL of Pam2CSK4 was added to the non-specific wells and then allowed to incubate for 30 m at 37° C. Next, 50 μL of the serial dilutions of […] were added and then allowed to incubate for 1 h at 37° C. Cells were washed three times to remove unbound ligand. Next, 100 μL of DELFIA Enhancement Solution (PerkinElmer) was added to each well. Cells were incubated for 30 min at 37° C. prior to reading. The plates were read on the VICTOR X4 Multilabel plate reader using the standard europium TRF protocol (340 nm excitation, […] and […] collection at 615 nm). To determine the mean Kd, statistical analysis was performed using GraphPad Prism software.
Target sequence in this assay (O60603 21-784): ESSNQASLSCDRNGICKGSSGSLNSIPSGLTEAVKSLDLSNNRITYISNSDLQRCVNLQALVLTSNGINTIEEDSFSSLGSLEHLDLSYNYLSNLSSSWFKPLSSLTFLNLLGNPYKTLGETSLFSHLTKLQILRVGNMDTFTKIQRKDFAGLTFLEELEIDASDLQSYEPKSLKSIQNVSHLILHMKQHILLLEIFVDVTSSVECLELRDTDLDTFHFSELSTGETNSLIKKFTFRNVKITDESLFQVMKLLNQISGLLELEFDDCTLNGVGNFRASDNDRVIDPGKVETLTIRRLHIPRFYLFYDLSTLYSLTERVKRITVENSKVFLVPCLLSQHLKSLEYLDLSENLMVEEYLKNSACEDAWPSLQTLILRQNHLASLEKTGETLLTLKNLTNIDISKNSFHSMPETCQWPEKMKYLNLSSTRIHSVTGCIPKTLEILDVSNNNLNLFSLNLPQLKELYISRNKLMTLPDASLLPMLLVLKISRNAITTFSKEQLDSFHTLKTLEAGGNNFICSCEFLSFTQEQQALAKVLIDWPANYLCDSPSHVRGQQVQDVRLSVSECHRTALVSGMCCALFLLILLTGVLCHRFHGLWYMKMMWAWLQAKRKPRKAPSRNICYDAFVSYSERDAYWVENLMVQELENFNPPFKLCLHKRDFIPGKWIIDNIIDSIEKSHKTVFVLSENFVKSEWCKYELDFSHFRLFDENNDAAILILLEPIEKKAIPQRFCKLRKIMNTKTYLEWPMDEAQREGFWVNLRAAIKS
Target sequence in this assay (Q9Y2C9 32-796 partner): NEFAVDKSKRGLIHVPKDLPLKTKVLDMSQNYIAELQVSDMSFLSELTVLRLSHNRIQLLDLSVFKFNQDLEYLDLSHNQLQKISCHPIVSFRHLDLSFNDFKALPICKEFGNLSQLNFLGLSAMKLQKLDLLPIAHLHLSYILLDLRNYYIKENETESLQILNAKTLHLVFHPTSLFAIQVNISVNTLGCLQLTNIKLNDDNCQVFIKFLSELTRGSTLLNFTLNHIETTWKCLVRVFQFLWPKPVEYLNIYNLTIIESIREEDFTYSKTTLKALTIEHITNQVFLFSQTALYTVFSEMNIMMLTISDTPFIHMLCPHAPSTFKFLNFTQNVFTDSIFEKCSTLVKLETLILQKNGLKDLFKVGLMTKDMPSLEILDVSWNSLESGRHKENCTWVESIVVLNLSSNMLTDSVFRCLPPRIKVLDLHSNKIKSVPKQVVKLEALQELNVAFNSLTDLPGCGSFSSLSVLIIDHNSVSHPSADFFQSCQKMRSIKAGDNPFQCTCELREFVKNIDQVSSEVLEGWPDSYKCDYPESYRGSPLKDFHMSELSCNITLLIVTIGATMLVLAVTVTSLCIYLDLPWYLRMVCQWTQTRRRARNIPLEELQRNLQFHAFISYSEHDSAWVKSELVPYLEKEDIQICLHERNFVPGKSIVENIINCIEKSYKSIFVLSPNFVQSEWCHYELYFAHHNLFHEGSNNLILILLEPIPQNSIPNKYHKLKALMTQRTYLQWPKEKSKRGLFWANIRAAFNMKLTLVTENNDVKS

For test [2], the target named is T1, TLR2. Briefly: In vitro TLR2 functional bioassay (NF-κB luciferase, HEK293/hTLR2 cells). It counts as cell-based. Also noted: host or cells: HEK293 stably transfected with pUNO-hTLR2, transiently transfected with the pNifty-Luc reporter. The source says:
In Vitro TLR2 Functional Bioassay The in vitro TLR2 functional bioassay was developed and optimized for use in screening soluble compound libraries to identify both TLR2 agonists and antagonists. In this study, the TLR2 functional bioassay was used as a fast high throughput screening to identify TLR2 agonist ligands by measuring the inducing activity of NF-κB. HEK293/hTLR2 cells, highly overexpressing human TLR2, were used along with the parental HEK293, cells as a negative control. Cells were seeded at a density of 40,000 per well using a WellMate® Microplate dispenser (Thermo Fischer Scientific/Matrix) in black 96-well plates with opaque white wells (Perkin Elmer Wallac, Waltham, Mass.) and then incubated at 37° C. On day 2, the cells were transiently transfected with pNifty-Luc (InvivoGen), an NF-κB inducible reporter plasmid expressing the luciferase reporter gene (Zuany-Amorim, C., J., et al. Nat Rev Drug Discov, 2002. 1(10):797-807), using an optimized 4:1 ratio by volume of Fugene® HD Transfection Reagent (Roche Applied Science, Indianapolis, Ind.) to pNifty-Luc plasmid DNA (1 μg/mL). […] On day 4 after 24 hrs of peptide stimulation, luciferase induced activity by the induction of NF-κB was measured. Media was aspirated from the wells using an ELx405 Select plate washer (BioTek, Winooski, Vt.), 150 μg/mL D-luciferin (Gold Biotechnology, St. Louis, Mo.) was dispensed using the microplate dispensor; the plates were incubated at 37° C. for 5 min. The luminescence intensity was measured using the standard luminescence protocol on a Victor™ X4 plate-reader equipped with a plate stacker for readout of multiple plates at a time (PerkinElmer, Waltham, Mass.). For each in vitro TLR2 bioassay, at least three different experiments were performed in triplicate (n=3+). Data were analyzed with GraphPad Prism software and curves were generated with the appropriate nonlinear fit regression analysis.
The in vitro TLR2 functional bioassay was developed and optimized for use in high-throughput screening of soluble compound libraries to identify both TLR2 agonists and antagonists. The bioassay measures the induction of NF-κB signaling via TLR2 in HEK-293/hTLR2 cells and parental HEK-293 cells as a negative control. Cells were seeded at a density of 40,000 per well using a WellMate Microplate dispenser (Thermo Fisher Scientific/Matrix) in black 96-well plates with opaque white wells (PerkinElmer, Waltham, Mass.) and then incubated at 37° C. On day 2, the cells were transiently transfected with pNifty-Luc (InvivoGen, San Diego, Calif.), an NF-κB inducible reporter plasmid expressing the luciferase reporter gene[28] using an optimized 4:1 ratio by volume of FugeneHD Transfection Reagent (Promega, Madison, Wis.) to pNifty-Luc plasmid DNA (1 μg/mL). […] […] On day 4 after 24 h of peptide stimulation, luciferase induced activity by the induction of NF-κB was measured. Media was aspirated from the wells using an ELx405 Select CW plate washer (BioTek, Winooski, Vt.), 150 μg/mL D-luciferin (Gold Biotechnology, St. Louis, Mo.) was dispensed using the microplate dispensor; the plates were incubated at 37° C. for 5 min. The luminescence intensity was measured using the standard luminescence protocol on a Victor X4 Multilabel plate reader equipped with a plate stacker for readout of multiple plates at a time (PerkinElmer, Waltham, Mass.). […] Data were analyzed with GraphPad Prism software and curves were generated with the appropriate nonlinear fit regression analysis.
Target sequence in this assay (O60603 21-784): as the sequence (O60603 21-784) above
Target sequence in this assay (Q9Y2C9 32-796 partner): as the sequence (Q9Y2C9 32-796 partner) above

The target in test [3] is T1, TLR2. The conditions noted are these: 95° C. for 30 min; cited from earlier work.
Target sequence in this assay (O60603 21-784, species assumed): as the sequence (O60603 21-784) above

The Kd is the free concentration of one partner at which half of the binding sites on the other are occupied at equilibrium, for simple one-to-one binding.

Turning to `CCCCCCCCCCCCCCCC(=O)OC[C@H](CSC[C@H](NC(=O)COCC(=O)NCCCOCCOCCOCCCNC(=O)CN(CCN(CCN(CC(=O)O)CC(=O)O)CC(=O)O)CC(=O)O)C(=O)NCC(=O)N[C@H](CO)C(=O)NCCCOCCOCCOCCCNC(=O)COCC(N)=O)OC(=O)CCCCCCCCCCCCCCC` [Compound 11], the figures for the Bmax at TLR2 [1] (Capan-I cells), at TLR2 [1] (HEK-293/hTLR2 cells) and on TLR2 [1] (SU.86.86 cells) were 951,170 AFU, 114,271 AFU and 269,878 AFU, respectively. Further, binding at TLR2 [1] (cell line not stated) was characterised by a dissociation constant (Kd) of 30 nM. In addition, the “decrease in potency compared to 10” value at TLR2 [2] was 10 fold.

B1: SAA: recombinant human Apo-SAA1 (Peprotech) derived from E. coli; serum amyloid A, acute-phase protein, TLR2 agonist (protein)
chain: MRSFFSFLGEAFDGARDMWRAYSDMREANYIGSDKYFHARGNYDAAKRGPGGVWAAEAISDRENIQRFFGHGAEDSLADQAANEWGRSGKDPNHFRPAGLPEKY
For the molecule B1, the “loss of activity of heat-treated SAA” value in the test with TLR2 [3] was 95%. The “NF-κB induced luciferase activity (luminescence) in screening” value with TLR2 [2] (1 μg/mL, SAA at 1 and 10 μg/mL) is “low potency”.

The values above are taken from US11458212B2, “Molecular imaging of cancer cells in vivo” (H. Lee Moffitt Cancer Center and Research Institute, Inc., priority 2011, dated 2022).
